System: Spodoptera eridania
Test: Southern armyworm (Spodoptera eridania), 2nd instar larvae, on dipped Sieva lima bean foliage
Assay type: in vivo
Settings: 300 ppm, observation at 5 days
Description: The active compounds were formulated • a. for testing the activity against Aphis gossypii, Myzus persicae, and Aphis fabae, as 50:50 acetone:water solutions amended with 100 ppm Kinetic® (surfactant), • b. for testing the activity against Spodoptera eridania as a 10.000 ppm solution in a mixture of 35% acetone and water, which was diluted with water, if needed,
After the experiments were completed, in each case the lowest concentration was determined at which the compound still caused an 75 to 100% inhibition or mortality in comparison with untreated controls (limit or minimal concentration).
Foliage of two Sieva lima beans plants at the first expanded true-leaf stage that are contained within a single 3.8 cm square plastic pot are dipped into the test solution with agitation for 3 seconds and allowed to dry in a hood. The pot is then placed in a 25.4 cm plastic zipper top bag and infested with ten 2nd instar caterpillars. At 5 days, observations are made of mortality, reduced feeding, or any interference with normal molting.

**Q.** `Cc1cccc(CC(NC2=NCC(C)S2)c2ccccc2)c1` (stereo not shown) [Example 16] was tested. Which “mortality in comparison with untreated controls” value did it give?
**A.** over 50%
